{"source": "ChEMBL document CHEMBL4411300", "about": "(Eur J Med Chem, 2019)", "key": {"[1]": {"tested_on": "Trypanosoma cruzi", "assay": "Trypanocidal activity against Trypanosoma cruzi MHOM/Pe/2011/Arequipa DTU 5 epimastigotes after 48 to 72 hrs by resazurin dye based assay", "format": "functional, organism-based"}, "[2]": {"tested_on": "Trypanosoma cruzi", "assay": "Trypanocidal activity against Trypanosoma cruzi IRHOD/CO/2008/SN3 DTU 1 epimastigotes after 48 to 72 hrs by resazurin dye based assay", "format": "functional, organism-based"}, "[3]": {"tested_on": "Trypanosoma cruzi", "assay": "Trypanocidal activity against Trypanosoma cruzi TINF/CH/1956/Tulahuen DTU 6 epimastigotes after 48 to 72 hrs by resazurin dye based assay", "format": "functional, organism-based"}, "[4]": {"tested_on": "Vero", "assay": "Cytotoxicity against African green monkey Vero cells assessed as reduction in cell viability after 48 to 72 hrs by resazurin dye based assay", "details": "Chlorocebus sabaeus"}, "[5]": {"tested_on": "Trypanosoma cruzi", "assay": "Trypanocidal activity against Trypanosoma cruzi TINF/CH/1956/Tulahuen DTU 6 trypomastigotes derived from infected Balb/c albino mouse after 24 hrs by resazurin dye based assay", "format": "functional, organism-based", "details": "TINF/CH/1956/Tulahuen DTU 6, 24 h"}, "[6]": {"tested_on": "Trypanosoma cruzi", "assay": "Trypanocidal activity against Trypanosoma cruzi IRHOD/CO/2008/SN3 DTU 1 trypomastigotes derived from infected Balb/c albino mouse after 24 hrs by resazurin dye based assay", "format": "functional, organism-based", "details": "IRHOD/CO/2008/SN3 DTU 1, 24 h"}, "[7]": {"assay": "Selectivity index, ratio of IC50 for African green monkey Vero cells to IC50 for Trypanosoma cruzi MHOM/Pe/2011/Arequipa DTU 5 epimastigotes", "format": "toxicity", "details": "read-out: Ratio IC50"}, "[8]": {"assay": "Selectivity index, ratio of IC50 for African green monkey Vero cells to IC50 for Trypanosoma cruzi IRHOD/CO/2008/SN3 DTU 1 amastigotes infected in African green monkey Vero cells", "format": "toxicity", "details": "read-out: Ratio IC50"}, "[9]": {"assay": "Selectivity index, ratio of IC50 for African green monkey Vero cells to IC50 for Trypanosoma cruzi IRHOD/CO/2008/SN3 DTU 1 epimastigotes", "format": "toxicity", "details": "read-out: Ratio IC50"}, "[10]": {"tested_on": "Trypanosoma cruzi", "assay": "Trypanocidal activity against Trypanosoma cruzi IRHOD/CO/2008/SN3 DTU 1 amastigotes infected in African green monkey Vero cells after 72 hrs by Giemsa-staining based microscopic assay", "format": "functional, organism-based", "details": "IRHOD/CO/2008/SN3 DTU 1, Vero"}, "[11]": {"assay": "Selectivity index, ratio of IC50 for African green monkey Vero cells to IC50 for Trypanosoma cruzi TINF/CH/1956/Tulahuen DTU 6 epimastigotes", "format": "toxicity", "details": "read-out: Ratio IC50"}, "[12]": {"assay": "Selectivity index, ratio of IC50 for African green monkey Vero cells to IC50 for Trypanosoma cruzi TINF/CH/1956/Tulahuen DTU 6 trypomastigotes derived from infected Balb/c albino mouse", "format": "toxicity", "details": "read-out: Ratio IC50"}, "[13]": {"assay": "Selectivity index, ratio of IC50 for African green monkey Vero cells to IC50 for Trypanosoma cruzi TINF/CH/1956/Tulahuen DTU 6 amastigotes infected in African green monkey Vero cells", "format": "toxicity", "details": "read-out: Ratio IC50"}, "[14]": {"assay": "Selectivity index, ratio of IC50 for African green monkey Vero cells to IC50 for Trypanosoma cruzi IRHOD/CO/2008/SN3 DTU 1 trypomastigotes derived from infected Balb/c albino mouse", "format": "toxicity", "details": "read-out: Ratio IC50"}, "[15]": {"tested_on": "Trypanosoma cruzi", "assay": "Trypanocidal activity against Trypanosoma cruzi TINF/CH/1956/Tulahuen DTU 6 amastigotes infected in African green monkey Vero cells after 72 hrs by Giemsa-staining based microscopic assay", "format": "functional, organism-based", "details": "TINF/CH/1956/Tulahuen DTU 6, Vero"}, "[16]": {"tested_on": "Trypanosoma cruzi", "assay": "Trypanocidal activity against Trypanosoma cruzi MHOM/Pe/2011/Arequipa DTU 5 amastigotes infected in African green monkey Vero cells after 72 hrs by Giemsa-staining based microscopic assay", "format": "functional, organism-based", "details": "MHOM/Pe/2011/Arequipa DTU 5, Vero"}, "[17]": {"tested_on": "Trypanosoma cruzi", "assay": "Trypanocidal activity against Trypanosoma cruzi MHOM/Pe/2011/Arequipa DTU 5 trypomastigotes derived from infected Balb/c albino mouse after 24 hrs by resazurin dye based assay", "format": "functional, organism-based", "details": "MHOM/Pe/2011/Arequipa DTU 5, 24 h"}, "[18]": {"assay": "Selectivity index, ratio of IC50 for African green monkey Vero cells to IC50 for Trypanosoma cruzi MHOM/Pe/2011/Arequipa DTU 5 amastigotes infected in African green monkey Vero cells", "format": "toxicity", "details": "read-out: Ratio IC50"}, "[19]": {"assay": "Selectivity index, ratio of IC50 for African green monkey Vero cells to IC50 for Trypanosoma cruzi MHOM/Pe/2011/Arequipa DTU 5 trypomastigotes derived from infected Balb/c albino mouse", "format": "toxicity", "details": "read-out: Ratio IC50"}}, "note": "pIC50: −log10 of the molar value.", "data": [{"smiles": "c1ccc(-c2n[nH]cc2CNCCN(CCNCc2c[nH]nc2-c2ccccc2)CCNCc2c[nH]nc2-c2ccccc2)cc1", "values": [{"measurement": "pIC50", "setting": "[1]", "result": 4.14}, {"measurement": "pIC50", "setting": "[2]", "result": 3.73}, {"measurement": "pIC50", "setting": "[3]", "result": 4.05}, {"measurement": "pIC50", "setting": "[4]", "result": 3.17}]}, {"smiles": "CN(C)c1cccc2c(S(=O)(=O)NCCN(CCN)CCN)cccc12", "values": [{"measurement": "pIC50", "setting": "[1]", "result": 4.18}, {"measurement": "pIC50", "setting": "[2]", "result": 3.99}, {"measurement": "pIC50", "setting": "[3]", "result": 4.06}, {"measurement": "pIC50", "setting": "[4]", "result": 3.86}]}, {"smiles": "NCCCNCCN(CCNCCCN)CCNCCCN", "values": [{"measurement": "pIC50", "setting": "[1]", "result": 3.89}, {"measurement": "pIC50", "setting": "[2]", "result": 3.91}, {"measurement": "pIC50", "setting": "[3]", "result": 3.69}, {"measurement": "pIC50", "setting": "[4]", "result": 2.93}]}, {"smiles": "c1ccc2cc(CNCCN(CCNCc3ccc4ccccc4c3)CCNCc3ccc4[nH]ncc4c3)ccc2c1", "values": [{"measurement": "pIC50", "setting": "[1]", "result": 4.62}, {"measurement": "pIC50", "setting": "[2]", "result": 4.80}, {"measurement": "pIC50", "setting": "[3]", "result": 4.83}, {"measurement": "pIC50", "setting": "[4]", "result": 4.65}]}, {"smiles": "NCCN(CCN)CCNCc1ccc2ccccc2c1", "values": [{"measurement": "pIC50", "setting": "[1]", "result": 4.37}, {"measurement": "pIC50", "setting": "[2]", "result": 5.10}, {"measurement": "pIC50", "setting": "[5]", "result": 4.72}, {"measurement": "pIC50", "setting": "[6]", "result": 4.74}, {"measurement": "pIC50", "setting": "[3]", "result": 4.87}, {"measurement": "selectivity ratio", "setting": "[7]", "result": 4.8}, {"measurement": "pIC50", "setting": "[4]", "result": 3.69}, {"measurement": "selectivity ratio", "setting": "[8]", "result": 9.6}, {"measurement": "selectivity ratio", "setting": "[9]", "result": 25.4}, {"measurement": "pIC50", "setting": "[10]", "result": 4.68}, {"measurement": "selectivity ratio", "setting": "[11]", "result": 14.8}, {"measurement": "selectivity ratio", "setting": "[12]", "result": 10.6}, {"measurement": "selectivity ratio", "setting": "[13]", "result": 7.7}, {"measurement": "selectivity ratio", "setting": "[14]", "result": 11}, {"measurement": "pIC50", "setting": "[15]", "result": 4.58}]}, {"smiles": "c1ccc2c(CNCCN(CCNCc3ccnc4ccccc34)CCNCc3ccnc4ccccc34)ccnc2c1", "values": [{"measurement": "pIC50", "setting": "[16]", "result": 4.70}, {"measurement": "pIC50", "setting": "[1]", "result": 4.92}, {"measurement": "pIC50", "setting": "[2]", "result": 4.60}, {"measurement": "pIC50", "setting": "[3]", "result": 4.63}, {"measurement": "selectivity ratio", "setting": "[7]", "result": 16.7}, {"measurement": "pIC50", "setting": "[4]", "result": 3.70}, {"measurement": "pIC50", "setting": "[17]", "result": 4.84}, {"measurement": "selectivity ratio", "setting": "[18]", "result": 9.9}, {"measurement": "selectivity ratio", "setting": "[19]", "result": 13.9}, {"measurement": "selectivity ratio", "setting": "[9]", "result": 7.9}, {"measurement": "selectivity ratio", "setting": "[11]", "result": 8.5}]}, {"smiles": "NCCN(CCN)CCNCc1ccc2ccc3cccc4ccc1c2c34", "values": [{"measurement": "pIC50", "setting": "[1]", "result": 4.64}, {"measurement": "pIC50", "setting": "[2]", "result": 4.15}, {"measurement": "pIC50", "setting": "[3]", "result": 4.66}, {"measurement": "pIC50", "setting": "[4]", "result": 4.48}]}, {"smiles": "NCCN(CCN)CCNCc1c2ccccc2cc2ccccc12", "values": [{"measurement": "pIC50", "setting": "[1]", "result": 4.53}, {"measurement": "pIC50", "setting": "[2]", "result": 4.79}, {"measurement": "pIC50", "setting": "[3]", "result": 4.26}, {"measurement": "pIC50", "setting": "[4]", "result": 4.69}]}]}
